According to patent publication US12319750B2, “Hexokinase 2-specific inhibitors for use in acute central nervous system injury” (GUANGZHOU CELLPROTEK PHARMACEUTICAL CO., LTD, priority 2017, dated 2025):

How the values were obtained:
[1] = system: BV2 microglia cells; experiment: Hypoxia-induced microglial activation (morphological changes) in BV2 cells; assay type: cell-based, mouse
Experimental: a) Cell culture: BV2 cells were grown in DMEM containing 10% fetal bovine serum (FBS), placed in 5% CO2, cultured in a 37° C. constant temperature incubator (relative humidity was 95%), and observed under inverted microscope. Passage was performed approximately 2-3 days, and logarithmic growth phase cells were used for formal experiments. The cells in the hypoxic treatment group were placed in the Coy anoxic chamber with 1% 02, 5% CO2, and 94% N2; other conditions were the same as normal culture conditions.
(§1) b) RNA interference: Cells were seeded in a 35 mm culture dish for 24 hours. Short-interfering RNAs (siRNAs) were transfected with RNAiMAX Reagent. Scrambled RNA was used as a control. In total, 50 nM siRNAs were transfected into the cultures, and after 12 hours, the medium was replaced with fresh medium. Cells were then stimulated with hypoxia for 24 hours to detect the expression level of the indicated proteins.
a) Cell culture: BV2 cells were grown in DMEM containing 10% fetal bovine serum (FBS), placed in 5% CO2, cultured in a 37° C. constant temperature incubator (relative humidity was 95%), and observed under inverted microscope. Passage was performed approximately 2-3 days, and logarithmic growth phase cells were used for formal experiments.

[2] = system: primary microglia (pMG); experiment: Hypoxia-induced microglial activation (morphological changes) in primary microglia; assay type: cell-based, mouse; conditions: lonidamine 50 μM
Experimental: For the isolation and culture of primary microglia, cells were isolated from newborn C57BL/6J mice. Briefly, cerebral cortices devoid of meninges and blood vessels were dissociated from P0-2 mice and digested by 0.125% trypsin at 37° C. for 15 minutes. The digestion was terminated by addition of DMEM containing 10% FBS and isolated single cells were seeded in culture dishes. After the mixed cultures became confluent, microglia were separated from other cell types by slight shaking and purification was identified by the microglial-specific marker CD 11b.

[3] = system: BV2 microglia cells; experiment: CD 11b expression in hypoxia-stimulated BV2 cells; assay type: cell-based, mouse; conditions: lonidamine 50 μM, DMSO as solvent
Experimental: (§2) c) CD 11b expression detected by Immunofluorescence: BV2 cells were seeded in a laser confocal-specific culture plate, and treated with hypoxia for 24 hours, fixed in 4% paraformaldehyde at room temperature for 20 minutes, and then washed three times with PBST for 5 minutes each time. After washing, CD 11b antibody diluted with DAKO antibody dilution was added and incubated overnight at 4° C. The next day, the samples were incubated with indicated fluorescently labeled secondary antibody at 37° C. for 1 hour.
as §1
as §2, with “b)” for “c)”, “The next day, the samples were incubated with indicated fluorescently labeled secondary antibody at 37° C. for 1 hour.” left out

[4] = system: primary microglia (pMG); experiment: CD 11b expression in hypoxia-stimulated primary microglia; assay type: cell-based, mouse; conditions: lonidamine 50 μM, DMSO as solvent
Experimental: For the isolation and culture of primary microglia, cells were isolated from newborn C57BL/6J mice. Briefly, cerebral cortices devoid of meninges and blood vessels were dissociated from P0-2 mice and digested by 0.125% trypsin at 37° C. for 15 minutes. The digestion was terminated by addition of DMEM containing 10% FBS and isolated single cells were seeded in culture dishes. After the mixed cultures became confluent, microglia were separated from other cell types by slight shaking and purification was identified by the microglial-specific marker CD 11b. b) CD 11b expression detected by Immunofluorescence: BV2 cells were seeded in a laser confocal-specific culture plate, and treated with hypoxia for 24 hours, fixed in 4% paraformaldehyde at room temperature for 20 minutes, and then washed three times with PBST for 5 minutes each time. After washing, CD 11b antibody diluted with DAKO antibody dilution was added and incubated overnight at 4° C. The next day, the samples were incubated with indicated fluorescently labeled secondary antibody at 37° C. for 1 hour.

[5] = system: BV 2 cells; experiment: Metabolite profiling: acetyl-coenzyme A accumulation under hypoxia; assay type: cell-based, mouse; conditions: lonidamine 50 μM, BrPA 10 μM; hypoxia 6 hours
Experimental: c) Metabolite profiling: BV2 cells were seeded in a 60 mm culture dish and cultured for 24 hours and then cultured in normoxic or hypoxic conditions for 6 hours. Metabolites were extracted using 1.5 mL of ice-cold 80% methanol. After incubation at −80° C. for 30 minutes, cells were scrapped and centrifuged at 14,000 g for 15 min at 4° C. The upper methanol/water phase were transferred into new tubes and incubated at −80° C. for another 30 minutes. The upper phases were centrifuged and dried under nitrogen gas and dried samples were stored at −80° C. prior to LC-MS analysis.

[6] = system: BV 2 cells; experiment: qRT-PCR of proinflammatory cytokine mRNA under hypoxia; assay type: cell-based, mouse; conditions: lonidamine 50 μM, 3-BrPA 10 μM; for 116 expression (mRNA) / Tnfa expression (mRNA): hypoxia
Experimental: Next, quantitative reverse transcription polymerase chain reaction assays were performed to examine the mRNA levels of several proinflammatory cytokines in the presence or absence of HK2 inhibitors. […] Chromatin immunoprecipitation assays were carried out to examine endogenous binding of acetylated histones to I11b promoter. The binding of AcH3 and AcH4 to the I11b promoter increased during hypoxia, whereas it could be decreased by pretreatment with lonidamine (FIG. 7F).

[7] = system: I11b promoter; experiment: Chromatin immunoprecipitation (ChIP): acetylated histones at I11b promoter; assay type: cell-based, mouse; conditions: pretreatment 1 hour prior to 6 hours hypoxic exposure
Experimental: d) Chromatin immunoprecipitation (ChIP) assay: BV 2 cells were treated with dimethylsulfoxide or lonidamine for 1 hour prior to 6 hours hypoxic exposure. Then, cells were cross-linked with a 1% formaldehyde solution (Sigma, F8775) for 10 minutes at 37° C. Cell lysates were sonicated to generate 100-1000 bp DNA fragments. Samples were diluted, and 10% of the total amount was retained for input. The remaining portions of each sample were pre-cleared, and anti-H3 or anti-H4 antibodies were added; a normal rabbit IgG antibody was simultaneously used as the negative control. The next day, protein G agarose was added and samples were washed after 2 hours of incubation. Cross-links were then reversed by incubation at 65° C. for 4 hours in 0.2 M NaCl. DNAs were extracted from the input and IP samples, and qPCR assays were performed. The […] promoter primer sequences were as follows: [NT] (forward) (SEQ ID NO. 19) and [NT] (reverse) (SEQ ID NO. 20).

[8] = system: middle cerebral artery occlusion (MCAo) rats; experiment: Rat MCAo model, infarct volume by TTC staining; assay type: in vivo; conditions: 10 mg/kg two hours after operation; measured 24 hours after reperfusion
[9] = system: BV2 microglia cells; experiment: Proinflammatory cytokine protein expression under hypoxia; assay type: cell-based, mouse; conditions: 2-DG, BV 2 cells under hypoxia
Experimental: b) Protein extraction and proinflammatory cytokine protein expression assay: After incubated in 35 mm culture dishes and placed for 24 hours, the cells were subject to hypoxia treatment for indicated time. The total cellular protein was then extracted to detect protein expression of the proinflammatory cytokines TNF-α, IL-1β and IL-6.

| SMILES | activated state of BV 2 cultures during hypoxia ([1]; lonidamine 50 μM) | activated state of pMG cultures during hypoxia [2] | CD 11b expression, BV 2 cells (immunofluorescence) [3] | CD 11b expression, pMG cells (immunofluorescence) [4] | hypoxia-induced accumulation of acetyl-coenzyme A [5] | hypoxia-induced I11b expression at the mRNA level [6] | 116 expression (mRNA) [6] | Tnfa expression (mRNA) [6] | binding of AcH3 to the I11b promoter during hypoxia [7] | binding of AcH4 to the I11b promoter during hypoxia [7] | infarct size [8] | percentage of BV 2 cells with activated morphological changes ([1]; 500 μM 2-DG, hypoxia 1% oxygen) | production of proinflammation cytokines [9] |
| --- | --- | --- | --- | --- | --- | --- | --- | --- | --- | --- | --- | --- | --- |
| O=C(O)c1nn(Cc2ccc(Cl)cc2Cl)c2ccccc12 [Lonidamine] | markedly inhibited | markedly inhibited | reduction | reduction | remarkably impaired | dramatically inhibited | no effect | no effect | decreased | decreased | significantly reduced |  |  |
| O=CC[C@@H](O)[C@H](O)[C@H](O)CO [2-deoxyglucose, 2-deoxy-D-glucose] |  |  |  |  |  |  |  |  |  |  |  | significantly decreased | significantly impaired |
| O=C(O)C(=O)CBr [3-Br-pyruvate, 3-bromopyruvate] |  |  |  |  | remarkably impaired | dramatically inhibited | no effect | no effect |  |  |  |  |  |
